Drawing on US20230286970A1, “NOVEL OXADIAZOLE-BASED SELECTIVE HDAC6 INHIBITORS” (ITALFARMACO S.P.A., priority 2020, published 2023), this text covers IC50 for 27 molecules.

In one test the target is recombinant human HDAC6 (Homo sapiens (Human), UniProt Q9UBN7). Kind of test: Enzymatic screening, HDAC6 inhibition (fluorogenic FdL_G substrate). It counts as biochemical. The gist of the method:
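Enzyme was preincubated with compound (8 doses, triplicate, 1% DMSO) in 25 mM Tris-HCl pH 8, 130 mM NaCl, 0.05% Tween-20, 10% glycerol, with BSA. A FLUOR DE LYS-Green substrate was then added, and fluorescence was read after developer plus 2 μM TSA.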

Another test has as its target recombinant human HDAC1 (Homo sapiens (Human), UniProt Q13547). In words: Enzymatic screening, HDAC1 inhibition (fluorogenic FdL_G substrate). It counts as biochemical. The procedure, abridged: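 Recombinant human HDAC1 inhibition was measured fluorometrically using the FLUOR DE LYS-Green (FdL_G) substrate. Compounds at 8 doses (1% DMSO final) in Tris-HCl pH 8 buffer with NaCl, Tween-20 and glycerol were preincubated in triplicate with enzyme and 1 mg/mL BSA, then given substrate. Developer I plus 2 μM TSA was added, and fluorescence read after 25 minutes in the dark.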

Molecules are shown by their SMILES. Some results are limits rather than exact numbers.

Chain of recombinant human HDAC6 (Q9UBN7 whole entry): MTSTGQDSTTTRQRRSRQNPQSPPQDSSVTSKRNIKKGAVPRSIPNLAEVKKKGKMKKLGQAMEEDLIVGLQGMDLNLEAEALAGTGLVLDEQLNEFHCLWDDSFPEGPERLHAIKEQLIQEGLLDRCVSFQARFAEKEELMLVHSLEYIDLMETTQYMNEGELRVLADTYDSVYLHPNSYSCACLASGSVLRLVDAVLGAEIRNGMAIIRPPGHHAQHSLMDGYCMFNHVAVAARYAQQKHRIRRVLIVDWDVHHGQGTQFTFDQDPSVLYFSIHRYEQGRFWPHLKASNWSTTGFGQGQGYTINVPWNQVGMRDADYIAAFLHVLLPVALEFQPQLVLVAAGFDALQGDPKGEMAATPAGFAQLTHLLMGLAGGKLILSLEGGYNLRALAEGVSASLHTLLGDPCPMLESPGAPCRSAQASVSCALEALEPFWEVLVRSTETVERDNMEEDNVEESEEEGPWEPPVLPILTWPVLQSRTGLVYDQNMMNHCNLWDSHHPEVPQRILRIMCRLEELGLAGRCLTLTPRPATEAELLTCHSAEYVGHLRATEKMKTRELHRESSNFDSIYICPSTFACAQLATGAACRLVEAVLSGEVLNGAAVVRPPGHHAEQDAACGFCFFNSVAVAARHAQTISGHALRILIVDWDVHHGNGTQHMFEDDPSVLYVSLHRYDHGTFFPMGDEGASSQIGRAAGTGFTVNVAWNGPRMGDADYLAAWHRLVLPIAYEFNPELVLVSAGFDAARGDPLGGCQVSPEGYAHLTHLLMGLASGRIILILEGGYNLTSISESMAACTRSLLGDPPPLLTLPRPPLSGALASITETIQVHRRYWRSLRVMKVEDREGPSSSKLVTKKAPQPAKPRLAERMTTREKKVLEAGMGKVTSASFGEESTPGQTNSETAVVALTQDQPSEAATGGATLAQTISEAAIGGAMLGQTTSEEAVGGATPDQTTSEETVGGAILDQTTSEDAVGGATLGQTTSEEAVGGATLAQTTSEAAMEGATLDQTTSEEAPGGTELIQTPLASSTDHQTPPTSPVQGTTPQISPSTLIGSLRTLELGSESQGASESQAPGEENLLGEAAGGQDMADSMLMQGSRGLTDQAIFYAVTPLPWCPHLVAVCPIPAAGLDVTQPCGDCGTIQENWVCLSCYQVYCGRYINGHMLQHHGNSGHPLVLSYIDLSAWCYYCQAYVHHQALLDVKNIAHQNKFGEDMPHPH
Chain of recombinant human HDAC1 (Q13547 whole entry): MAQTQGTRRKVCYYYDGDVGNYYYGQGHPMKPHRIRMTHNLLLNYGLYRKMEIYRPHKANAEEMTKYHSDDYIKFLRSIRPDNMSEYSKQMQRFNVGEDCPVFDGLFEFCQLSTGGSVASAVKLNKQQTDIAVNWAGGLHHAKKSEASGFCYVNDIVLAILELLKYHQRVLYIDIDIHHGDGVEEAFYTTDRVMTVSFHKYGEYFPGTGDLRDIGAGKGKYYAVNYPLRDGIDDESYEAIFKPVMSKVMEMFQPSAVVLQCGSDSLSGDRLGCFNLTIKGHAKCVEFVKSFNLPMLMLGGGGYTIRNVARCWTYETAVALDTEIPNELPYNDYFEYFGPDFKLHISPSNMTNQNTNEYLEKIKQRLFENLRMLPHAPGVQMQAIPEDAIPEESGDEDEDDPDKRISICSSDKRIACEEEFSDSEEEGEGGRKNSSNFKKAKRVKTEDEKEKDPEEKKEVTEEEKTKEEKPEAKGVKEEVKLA

Take `Fc1cc(-c2nnc(C(F)F)o2)cnc1Cn1nnc(-c2cccc(-c3nc4c([nH]3)CCNC4)c2)n1` [compound 353, 2-(difluoromethyl)-5-[5-fluoro-6-[[5-[3-(4,5,6,7-tetrahydro-1H-imidazo[4,5-c]pyridin-2-yl)phenyl]tetrazol-2-yl]methyl]pyridin-3-yl]-1,3,4-oxadiazole]: the IC50 (commonly the concentration that gives 50% inhibition) at recombinant human HDAC6 was 0.042 µM; at recombinant human HDAC1, above 1000 µM.

`Cn1c(N)nc2cc(-c3cnn(Cc4ccc(-c5nnc(C(F)F)o5)cn4)c3)ccc21` [compound 320, 5-[1-[[5-[5-(difluoromethyl)-1,3,4-oxadiazol-2-yl]pyridin-2-yl]methyl]pyrazol-4-yl]-1-methylbenzimidazol-2-amine]: the IC50 was 0.028 µM on recombinant human HDAC6 and above 1000 µM on recombinant human HDAC1.

Consider `O=C(Nc1cccc(-c2cnn(Cc3ccc(-c4nnc(C(F)F)o4)cc3)c2)c1)N1CCOCC1` [compound 227, N-(3-(1-(4-(5-(difluoromethyl)-1,3,4-oxadiazol-2-yl)benzyl)-1H-pyrazol-4-yl)phenyl)morpholine-4-carboxamide], for which the values for the IC50 on recombinant human HDAC6 and at recombinant human HDAC1 were 0.172 µM and above 200 µM, respectively.

Take `CC(C)(C)OC(=O)N1CCn2ncc(-c3cccc(-c4nnn(Cc5ccc(-c6nnc(C(F)F)o6)cc5)n4)c3)c2C1` [compound 240, tert-butyl 3-(3-(2-(4-(5-(difluoromethyl)-1,3,4-oxadiazol-2-yl)benzyl)-2H-tetrazol-5-yl)phenyl)-6,7-dihydropyrazolo[1,5-a]pyrazine-5 (4H)-carboxylate]: the figures for the IC50 at recombinant human HDAC6 and at recombinant human HDAC1 were 0.215 µM and above 200 µM, respectively.

As for `Nc1ccc(-c2cn(C(CCN3CCCC3)c3ccc(-c4nnc(C(F)F)o4)cc3)nn2)cn1` (stereo not drawn) [compound 323, 5-(1-(1-(4-(5-(difluoromethyl)-1,3,4-oxadiazol-2-yl)phenyl)-3-(pyrrolidin-1-yl)propyl)-1H-1,2,3-triazol-4-yl)pyridin-2-amine], the IC50 came out at 0.049 µM at recombinant human HDAC6 and 47.9 µM on recombinant human HDAC1.

As to `Nc1ccc(-c2cn([C@@H](CN3CCCC3)c3ccc(-c4nnc(C(F)F)o4)cc3)nn2)cn1` [compound 312, 5-[1-[(1R)-1-[4-[5-(difluoromethyl)-1,3,4-oxadiazol-2-yl]phenyl]-2-pyrrolidin-1-ylethyl]triazol-4-yl]pyridin-2-amine], the IC50 on recombinant human HDAC6 was 0.041 µM; on recombinant human HDAC1, above 1000 µM.

On to `Nc1cccc(-c2cn(Cc3ccc(-c4nnc(C(F)F)o4)cc3)cn2)c1` [compd. 197, 3-(1-(4-(5-(difluoromethyl)-1,3,4-oxadiazol-2-yl)benzyl)-1H-imidazol-4-yl)aniline], for which the IC50 at recombinant human HDAC6 was 0.107 µM; at recombinant human HDAC1, above 200 µM.

`FC(F)c1nnc(-c2ccc(Cc3nc(-c4ccc(NC5=NCCN5)cc4)no3)cc2)o1` [compound 379, N-[4-[5-[[4-[5-(difluoromethyl)-1,3,4-oxadiazol-2-yl]phenyl]methyl]-1,2,4-oxadiazol-3-yl]phenyl]-4,5-dihydro-1H-imidazol-2-amine]: the figures for the IC50 at recombinant human HDAC6 and on recombinant human HDAC1 were 0.017 µM and above 1000 µM, respectively.

For `Cn1c(N)nc2ccc(-c3cn(Cc4ccc(-c5nnc(C(F)F)o5)cc4)nn3)cc21` [compound 166, 6-(1-(4-(5-(difluoromethyl)-1,3,4-oxadiazol-2-yl)benzyl)-1H-1,2,3-triazol-4-yl)-1-methyl-1H-benzo[d]imidazol-2-amine], the IC50 was 0.078 µM at recombinant human HDAC6 and above 200 µM at recombinant human HDAC1.

On to `CNc1ccc(-c2nnn(Cc3ccc(-c4nnc(C(F)F)o4)cc3)n2)cc1N` [compound 164, 4-(2-(4-(5-(difluoromethyl)-1,3,4-oxadiazol-2-yl)benzyl)-2H-tetrazol-5-yl)-N-1-methylbenzene-1,2-diamine], for which the IC50 is 0.077 µM at recombinant human HDAC6 and above 200 µM at recombinant human HDAC1.

For the molecule `Nc1ncnc2sc(-c3cn(Cc4c(F)cc(-c5nnc(C(F)F)o5)cc4F)nn3)cc12` [compound 386, 6-(1-(4-(5-(difluoromethyl)-1,3,4-oxadiazol-2-yl)-2,6-difluorobenzyl)-1H-1,2,3-triazol-4-yl)thieno[2,3-d]pyrimidin-4-amine], the figures for the IC50 at recombinant human HDAC6 and at recombinant human HDAC1 were 0.04 µM and 1000 µM, respectively.

For `Cn1c(N)nc2cc(-c3nnn(Cc4ncc(-c5nnc(C(F)F)o5)cn4)n3)ccc21` [compound 252, 5-(2-((5-(5-(difluoromethyl)-1,3,4-oxadiazol-2-yl)pyrimidin-2-yl)methyl)-2H-tetrazol-5-yl)-1-methyl-1H-benzo[d]imidazol-2-amine], the IC50 on recombinant human HDAC6 was 0.027 µM; at recombinant human HDAC1, above 200 µM.

With `NCC(=O)Nc1cccc(-c2cn(Cc3c(F)cc(-c4nnc(C(F)F)o4)cc3F)nn2)c1` [Compd. 144, 2-amino-N-(3-(1-(4-(5-(difluoromethyl)-1,3,4-oxadiazol-2-yl)-2,6-difluorobenzyl)-1H-1,2,3-triazol-4-yl)phenyl)acetamide], the values for the IC50 at recombinant human HDAC6 and on recombinant human HDAC1 were 0.06 µM and above 200 µM, respectively.

For `CN(C)S(=O)(=O)c1ccc(F)c(-c2nnn(Cc3ccc(-c4nnc(C(F)F)o4)cc3)n2)c1` [compound 163, 3-(2-(4-(5-(difluoromethyl)-1,3,4-oxadiazol-2-yl)benzyl)-2H-tetrazol-5-yl)-4-fluoro-N,N-dimethylbenzenesulfonamide], the IC50 on recombinant human HDAC6 was 0.077 µM; on recombinant human HDAC1, above 200 µM.

Regarding `FC(F)c1nnc(-c2ccc(Cn3nnc(-c4ccc5ccncc5c4)n3)cc2)o1` [compound 127, 2-(difluoromethyl)-5-(4-((5-(isoquinolin-7-yl)-2H-tetrazol-2-yl)methyl)phenyl)-1,3,4-oxadiazole], the IC50 at recombinant human HDAC6 is 0.049 µM; at recombinant human HDAC1, above 200 µM.

Consider `CCNc1ccc2cc(-c3nnn(Cc4cc(F)c(-c5nnc(C(F)F)o5)cc4F)n3)ccc2n1` [compound 409, 6-(2-(4-(5-(difluoromethyl)-1,3,4-oxadiazol-2-yl)-2,5-difluorobenzyl)-2H-tetrazol-5-yl)-N-ethylquinolin-2-amine], for which the IC50 on recombinant human HDAC6 amounted to 0.42 µM; on recombinant human HDAC1, 1000 µM.

As to `O=c1[nH]c2ccc(-c3nnn(Cc4ccc(-c5nnc(C(F)F)o5)cc4)n3)cc2[nH]1` [compound 168, 5-(2-(4-(5-(difluoromethyl)-1,3,4-oxadiazol-2-yl)benzyl)-2H-tetrazol-5-yl)-1,3-dihydro-2H-benzo[d]imidazol-2-one], the IC50 at recombinant human HDAC6 is 0.079 µM; on recombinant human HDAC1, above 200 µM.

`FC(F)c1nnc(-c2ccc(Cn3nnc(-c4cccc(-c5cnc(N6CCOCC6)s5)c4)n3)nc2)o1` [compound 130, 4-(5-(3-(2-((5-(5-(difluoromethyl)-1,3,4-oxadiazol-2-yl)pyridin-2-yl)methyl)-2H-tetrazol-5-yl)phenyl)thiazol-2-yl)morpholine]: the results for the IC50 at recombinant human HDAC6 and at recombinant human HDAC1 were 0.05 µM and above 200 µM, respectively.

Consider `FC(F)c1nnc(-c2ccc(Cn3cc(-c4ccc5nc(N6CCCC6)[nH]c5c4)nn3)cc2)o1` [compd. 190, 2-(difluoromethyl)-5-(4-((4-(2-(pyrrolidin-1-yl)-1H-benzo[d]imidazol-6-yl)-1H-1,2,3-triazol-1-yl)methyl)phenyl)-1,3,4-oxadiazole], for which the IC50 was 0.099 µM on recombinant human HDAC6 and above 200 µM at recombinant human HDAC1.

Turning to `Nc1ncc(-c2cccc(-c3nnn(Cc4ccc(-c5nnc(C(F)F)o5)cc4)n3)c2)s1` [compound 200, 5-(3-(2-(4-(5-(difluoromethyl)-1,3,4-oxadiazol-2-yl)benzyl)-2H-tetrazol-5-yl)phenyl)thiazol-2-amine], the IC50 is 0.113 µM at recombinant human HDAC6 and above 200 µM at recombinant human HDAC1.

In the case of `FC(F)c1nnc(-c2ccc(Cc3nnc(-c4ccccc4)s3)cc2)o1` [Compd. 238, 2-(difluoromethyl)-5-(4-((5-phenyl-1,3,4-thiadiazol-2-yl)methyl)phenyl)-1,3,4-oxadiazole], the IC50 on recombinant human HDAC6 was 0.211 µM; at recombinant human HDAC1 it was above 200 µM.

Take `O=C1NCc2ccc(-c3cnn(Cc4ccc(-c5nnc(C(F)F)o5)cc4)c3)cc21` [compound 319, 6-[1-[[4-[5-(difluoromethyl)-1,3,4-oxadiazol-2-yl]phenyl]methyl]pyrazol-4-yl]-2,3-dihydroisoindol-1-one]: the results for the IC50 at recombinant human HDAC6 and at recombinant human HDAC1 were 0.087 µM and above 1000 µM, respectively.

`NC(=O)c1cccc(-c2cn(Cc3ccc(-c4nnc(C(F)F)o4)cn3)cn2)c1` [compd. 305, 3-[1-[[5-[5-(difluoromethyl)-1,3,4-oxadiazol-2-yl]pyridin-2-yl]methyl]imidazol-4-yl]benzamide]: the IC50 is 0.023 µM on recombinant human HDAC6 and above 1000 µM at recombinant human HDAC1.

On to `FC(F)c1nnc(-c2ccc(Cn3cc(-c4ccc5nc(Cl)[nH]c5c4)nn3)cc2)o1` [compound 136, 2-(4-((4-(2-chloro-1H-benzo[d]imidazol-6-yl)-1H-1,2,3-triazol-1-yl)methyl)phenyl)-5-(difluoromethyl)-1,3,4-oxadiazole], for which the IC50 is 0.053 µM on recombinant human HDAC6 and above 200 µM at recombinant human HDAC1.

On to `[2H]C([2H])(c1ccc(-c2nnc(C(F)F)o2)cn1)n1cc(-c2ccc3nc(N)sc3c2)nn1` [compound 376, 6-[1-[dideuterio-[5-[5-(difluoromethyl)-1,3,4-oxadiazol-2-yl]pyridin-2-yl]methyl]triazol-4-yl]-1,3-benzothiazol-2-amine], for which the IC50 is 0.009 µM on recombinant human HDAC6 and above 1000 µM on recombinant human HDAC1.

With `CC(=O)Nc1cccc(-c2cn(Cc3ccc(-c4nnc(C(F)F)o4)cc3)nn2)c1` [compound 139, N-(3-(1-(4-(5-(difluoromethyl)-1,3,4-oxadiazol-2-yl)benzyl)-1H-1,2,3-triazol-4-yl)phenyl)acetamide], the values for the IC50 on recombinant human HDAC6 and on recombinant human HDAC1 were 0.055 µM and above 200 µM, respectively.

Turning to `Nc1ncnc2cc(-c3cn(Cc4ccc(-c5nnc(C(F)F)o5)cn4)nn3)ccc12` [compound 317, 7-[1-[[5-[5-(difluoromethyl)-1,3,4-oxadiazol-2-yl]pyridin-2-yl]methyl]triazol-4-yl]quinazolin-4-amine], the IC50 at recombinant human HDAC6 was 0.034 µM; at recombinant human HDAC1, above 1000 µM.
